Assay results from patent US20180271930A1, “METHOD FOR RAISING POULTRY” (priority 2015, published 2018).

What was measured:
[1] = Examination 4: body weight of chicks raised until 35 days old after feeding GSSG or GSH for 3 days; assay type: in vivo, broiler chicks; details: 0.01% by mass additive in feed for 3 days; n = 6, average ± standard deviation
Method: Newly hatched broiler chicks (Ross Breeders Ltd.) were tested. A control group (=additive-free group), a GSSG addition group (0.01% by mass), and a GSH addition group (0.01% by mass) each consisting of 5 males and 5 females were set and fed with a feed composition for 3 days. […] At this timing, 2 males and 2 females in each group were slaughtered to collect blood and skeletal muscles. The gene expression levels of the MyoD family (myogenin, myostatin, and Pax7) were observed. […] Statistics were analyzed using a mixed model in consideration of a gender difference and an interaction between males and females. An ammonium salt was used as oxidized glutathione (GSSG). The GSSG contained 95.6% by mass of oxidized glutathione, and the content of reduced glutathione mixed therein was 0.1% by mass or less. […] A feed composition, for which the amount of oxidized glutathione (GSSG) added was set to 0.01% by mass, is described in Examination 1. A feed composition, for which the amount of reduced glutathione (GSH) added was set to 0.01% by mass, was prepared by adding 0.01% by mass of GSH, instead of 0.01% by mass of GSSG, to the GSSG-containing feed composition described in detail in Examination 1.

myogenin = assay: Examination 4: myogenin gene expression in superficial pectoral muscle at 3 days old; assay type: in vivo, broiler chicks; details: 0.01% by mass additive in feed for 3 days, FIG. 3A, n=4
Method: FIGS. 3A to 3C illustrate graphs showing the expression of genes related to skeletal muscle cell differentiation in superficial pectoral muscles upon administration of each feed composition in Examination 4 (n=4). […] A relative value of the expression level of each factor is expressed as an average±standard deviation of values obtained by dividing the expression levels of each factor by the expression level of RPS9. Newly hatched broiler chicks (Ross Breeders Ltd.) were tested. A control group (=additive-free group), a GSSG addition group (0.01% by mass), and a GSH addition group (0.01% by mass) each consisting of 5 males and 5 females were set and fed with a feed composition for 3 days. […] At this timing, 2 males and 2 females in each group were slaughtered to collect blood and skeletal muscles. The gene expression levels of the MyoD family (myogenin, myostatin, and Pax7) were observed. […] Statistics were analyzed using a mixed model in consideration of a gender difference and an interaction between males and females. A method for determining gene expressions of the above factors in skeletal muscles is described above. An ammonium salt was used as oxidized glutathione (GSSG). The GSSG contained 95.6% by mass of oxidized glutathione, and the content of reduced glutathione mixed therein was 0.1% by mass or less. […]

## N[C@@H](CCC(=O)N[C@@H](CS)C(=O)NCC(=O)O)C(=O)O [GSH, N—(N-γ-L-glutamyl-L-cysteinyl)glycine, reference compound]
[1]
  Weight, 14 days old: 512.7 ± 79.8 g
  Weight, 35 days old: 2052 ± 267 g
myogenin
  myogenin expression level vs control group: smaller than the decrease
